Like-named read-outs stand apart in the source and are kept apart here.

These results are taken from patent US20250115577A1, “BCL-2 Inhibitors” (Eil Therapeutics, Inc., priority 2021, published 2025).

The target in one data set is BCL-2 (Homo sapiens (Human), UniProt P10415). The experiment in a line: BCL-2 TR-FRET Assay (primary PPI inhibition). Type of data set: binding. The note with it: 60 min incubation, read-out: BCL2 IC50. In a few lines:
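His-tagged BCL-2 (3 ng) with anti-His Tb donor, dye-labeled acceptor and BCL-2 peptide ligand; compound added at 200× stock, final DMSO 0.5%. 60 min incubation, then TR-FRET read at 340 nm excitation, 620/665 nm emission, 60 µs delay, 500 µs integration.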
On the technique in general: In TR-FRET formats the signal depends on donor and acceptor labels being close together.

The test system of a further data set is RS4-11 cells. The experiment in a line: Cell viability assay (CellTiter-Glo), RS4-11. Type of data set: cell-based. The note with it: 3 days of incubation. In a few lines: (§1)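 4000 cells/well in DMEM (HEK293, adhered overnight) or RPMI (RS4-11, MOLT-4) with 10% FBS; compounds added at 0.2% DMSO final. After 3 days, viability read by CellTiter-Glo luminescence.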

The test system of the next data set is HEK293 cells. The experiment in a line: Cell viability assay (CellTiter-Glo), HEK293. Conditions: 3 days of incubation. Type of data set: cell-based. In a few lines: as §1
For orientation: Cellular ATP, detected with luciferase, serves as a proxy for viable cell number.

The next data set concerns MOLT-4 cells. Kind of data set: Cell viability assay (CellTiter-Glo), MOLT-4. Type of data set: cell-based. Conditions: 3 days of incubation. The gist of the method:
as §1

Data set [1] has as its system caspase-3 and -7 activities in RS4-11 cells. Kind of data set: Caspase-3/7 activation (Caspase-Glo 3/7) in RS4-11 cells. Type of data set: cell-based. Conditions: 3.5 h, read-out: Cas-3/7 EC50. The gist of the method:
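RS4-11 cells exposed to graded compound concentrations for 3.5 h at 37 °C, 5% CO2. Caspase-3/7 activity then read as luminescence after 30 min at rt with a DEVD-based luminogenic substrate reagent.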

Another data set concerns the target BCL-xL (Homo sapiens (Human), UniProt Q07817). Kind of data set: BCL-xL TR-FRET Assay (primary PPI inhibition). Type of data set: binding. The note with it: 60 min incubation, read-out: BCLxL IC50. The gist of the method:
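TR-FRET competition of His-tagged BCL-xL (10.5 ng) binding to dye-labeled peptide ligand, with anti-His Tb donor; compound added from 200× stock, 0.5% DMSO final. After 60 min incubation, read at 340 nm excitation, 620/665 nm emission, 60 µs delay, 500 µs integration.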

The next data set has as its target BCL-2 [G101V] (Homo sapiens (Human), UniProt P10415, G101V). The experiment in a line: BCL-2 [G101V] TR-FRET Assay (primary PPI inhibition). Type of data set: binding. Conditions: 60 min incubation, read-out: BCL2[G101V] IC50. Here is the method: Example C. BCL-2 [G101V]TR-FRET Assay
The following assay concentrations and times were used: 0.22 ng/μl of BCL-2 (SinoBiological, #10195-H08E1), 5 μL of 1:100 anti-His Tb-labeled donor, 5 μL of 1:100 Dye-labeled acceptor, 5 μL of 1:40 BCL-2 Peptide Ligand (BPS Bioscience, #50223), and 2 μL of 200× test compound, with 60 min incubation time (final concentration of DMSO 0.5%). The results of the assay were read using a plate reader with the following parameters: TR FRET, 340ex/620 and 665em; 60 usec Delay; and 500 usec integration.
Instrumentation: CLARIOstar Plus (BMG LABTECH); Biomek FX for liquid handling (Beckman Coulter).

A short description of data set [2]: Cell viability assay (CellTiter-Glo), HEK293. Type of data set: cell-based. Conditions: human, HEK293 cells, 3 days of incubation. In a few lines:
as §1

Chain of BCL-xL (Q07817 whole entry): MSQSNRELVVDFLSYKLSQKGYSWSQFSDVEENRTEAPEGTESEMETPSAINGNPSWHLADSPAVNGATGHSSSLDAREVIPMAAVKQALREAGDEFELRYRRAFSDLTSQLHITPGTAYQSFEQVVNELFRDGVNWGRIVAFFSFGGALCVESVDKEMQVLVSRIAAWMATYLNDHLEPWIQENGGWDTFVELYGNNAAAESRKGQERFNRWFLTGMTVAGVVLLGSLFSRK

On to `COc1cccc(CN(C(=O)c2cc(-c3cc(Cl)c(F)cc3C(=O)N3Cc4ccccc4C[C@H]3CN3CCOCC3)n(C)c2C)c2ccc(C#N)cc2)c1C` [Compound 29, 5-[5-chloro-4-fluoro-2-[(3S)-3-(morpholinomethyl)-3,4-dihydro-1H-isoquinoline-2-carbonyl]phenyl]-N-(4-cyanophenyl)-N-[(3-methoxy-2-methyl-phenyl)methyl]-1,2-dimethyl-pyrrole-3-carboxamide], for which the IC50 on BCL-2 fell in the range of 10 to 50 nM. Besides, the CC50 in the data set with RS4-11 cells (Homo sapiens, RS4-11, 72 h) was 100 to 200 nM; in the data set on HEK293 cells, above 25000 nM; in the data set with MOLT-4 cells (Homo sapiens, 72 h), above 10000 nM. The EC50 in data set [1] (Homo sapiens) is above 500 nM.
Consider `COc1cccc(CN(C(=O)c2cc(-c3cc(Cl)c(F)cc3C(=O)N3Cc4ccccc4C[C@H]3CN3CCOCC3)n(C)c2C)c2ccc(C#N)cc2)c1C` [Compound 73, 5-[5-chloro-4-fluoro-2-[(3S)-3-(morpholinomethyl)-3,4-dihydro-1H-isoquinoline-2-carbonyl]phenyl]-N-(4-cyanophenyl)-N-[(3-methoxy-2-methyl-phenyl)methyl]-1,2-dimethyl-pyrrole-3-carboxamide], for which the half-inhibitory concentration (IC50) at BCL-2 was above 50 nM; at BCL-xL, 2000 to 5000 nM. Moreover, the CC50 in the data set with RS4-11 cells is above 200 nM; with HEK293 cells it was 10000 to 25000 nM; with MOLT-4 cells, above 10000 nM. Besides, in data set [1], the EC50 was above 500 nM.
Consider `Cc1c(C(=O)N(Cc2ccccc2C#N)c2ccc(O)cc2)cc(-c2cc(Cl)ccc2C(=O)N2Cc3ccccc3C[C@H]2CN2CCOCC2)n1C` [Compound 6, 5-[5-chloro-2-[(3S)-3-(morpholinomethyl)-3,4-dihydro-1H-isoquinoline-2-carbonyl]phenyl]-N-[(2-cyanophenyl)methyl]-N-(4-hydroxyphenyl)-1,2-dimethyl-pyrrole-3-carboxamide], for which the IC50 at BCL-2 was at most 5 nM; at BCL-xL, at most 2000 nM; on BCL-2 [G101V], at most 100 nM. The cytotoxic concentration (CC50) in the data set with RS4-11 cells (Homo sapiens, RS4-11, 72 h) lay within 100 to 200 nM; in the data set on MOLT-4 cells (Homo sapiens, 72 h), 5000 to 10000 nM. Besides, in data set [2], the 50% cytotoxic concentration (CC50) at 3 days is 10000 to 25000 nM. Further, in data set [1] (Homo sapiens), the EC50 was in the range of 200 to 500 nM.
As for `COc1cccc(CN(C(=O)c2cc(-c3cc(F)ccc3C(=O)N3Cc4ccccc4C[C@H]3CN3CCOCC3)n(C)c2C)c2ccc(O)cc2)c1C` [Compound 52, 5-[5-fluoro-2-[(3S)-3-(morpholinomethyl)-3,4-dihydro-1H-isoquinoline-2-carbonyl]phenyl]-N-(4-hydroxyphenyl)-N-[(3-methoxy-2-methyl-phenyl)methyl]-1,2-dimethyl-pyrrole-3-carboxamide], the IC50 was at most 5 nM at BCL-2, 2000 to 5000 nM at BCL-xL and at most 100 nM at BCL-2 [G101V]. Moreover, the CC50 was at most 100 nM in the data set with RS4-11 cells (Homo sapiens, RS4-11, 72 h) and at most 5000 nM with MOLT-4 cells (Homo sapiens, 72 h). Moreover, the CC50 at 3 days in data set [2] was above 25000 nM. Besides, the EC50 in data set [1] (Homo sapiens) was in the range of 200 to 500 nM.

For orientation: IC50 means the concentration needed to halve the response being measured. In general, CC50 refers to the concentration that lowers cell viability or growth by half.
